Source: article PMC6508677, “Identification of druggable small molecule antagonists of the Plasmodium falciparum hexose transporter PfHT and assessment of ligand access to the glucose permeation pathway via FLAG-mediated protein engineering” (PLoS ONE, 2019)
Where “and” joins values, the source holds several entries; their conditions need not be identical. Identical values can stand only once. Like-named read-outs stand apart in the source and are kept apart here.

How the values were obtained:
[1] = tested on: P. falciparum strain 3D7 freed parasites; test: 2-DG uptake by isolated freed P. falciparum parasites; type: cell-based, Plasmodium falciparum
Experimental: (§1) Glucose uptake by P. falciparum was performed essentially as described. P. falciparum strain 3D7 was cultured in 100 mm tissue culture dishes (Techno Plastic Products) in a 2% suspension of human erythrocytes and RPMI 1640 medium until reaching > 7.5% parasitemia. Cells were pelleted via centrifugation and resuspended in RPMI 1640 medium. To determine the uptake of radiolabeled glucose into the parasite, parasites were isolated from infected erythrocytes by permeablization with saponin (0.05 w/v), followed by centrifugation, aspiration of supernatant and washing of the pellet 3X with saline solution (135 mM NaCl, 2 mM KCl, 25 mM HEPES, 0.2 mM glucose and 1 mM MgCl2; pH 7.1) to remove cellular debris. WU-1 or DMSO vehicle were added to 100 μl parasites (resuspended in saline) 5 min prior to the addition of 100 μl [^14C]2-DOG (0.2- μCi/ml final concentration). 2-DG uptake was stopped after 2 min by layering the entire reaction over 300 μl of an oil mixture (5:4 mix of dibutyl phthalate / dinonyl phthalate) in Eppendorf tubes and centrifuged at 15,850 × g for 2 mins. The ratio of the estimated intracellular concentration of radiolabel relative to the extracellular concentration were calculated as described. Uptake of radiolabeled hexose into HEK293 cells was measured in glucose-free HBSS as described previously. Briefly, cells were plated at 400,000 cells/well overnight at 37°C in 24-well plates pre-treated with PEI. After 30-min incubation at 37°C in glucose-free HBSS in the presence of vehicle or increasing concentrations of compound, 2-DG uptake was measured in glucose-free HBSS for 4 min at 37°C. Cultures were washed in ice-cold 1X PBS and lysed in 0.1% Triton X-100 in 1X PBS. Radiolabeled hexose uptake was determined by liquid scintillation counting (Ultima Gold, Thermo Fisher) and normalized to total protein per well. Uptake data are plotted as percent uptake relative to vehicle-treated cells. Kinetic analyses were performed using the indicated concentrations of substrate and WU-1, with quenching of uptake after 1 min incubation. Incubation times had been previously determined as being in the linear range of time-dependent radiolabeled hexose uptake (2 min for 2-DG uptake into freed parasites; 2 and 4 min for D-Frc and 2-DG uptake HEK cell lines, respectively). Data were fit by least squares nonlinear regression analysis using GraphPad Prism 6.0 software.

PfHT [2] = biological target: T1, PfHT (Plasmodium falciparum, UniProt Q7KWJ5); test: Kinetic analysis (Dixon plot) of zero-trans D-fructose uptake in HEK293PfHT cells; type: cell-based; design: expressed in transfected cells; host or cells: HEK293 (HEK293-FLIP, native hGLUT1 knocked down by shRNA)
T1 sequence (Q7KWJ5 1-504): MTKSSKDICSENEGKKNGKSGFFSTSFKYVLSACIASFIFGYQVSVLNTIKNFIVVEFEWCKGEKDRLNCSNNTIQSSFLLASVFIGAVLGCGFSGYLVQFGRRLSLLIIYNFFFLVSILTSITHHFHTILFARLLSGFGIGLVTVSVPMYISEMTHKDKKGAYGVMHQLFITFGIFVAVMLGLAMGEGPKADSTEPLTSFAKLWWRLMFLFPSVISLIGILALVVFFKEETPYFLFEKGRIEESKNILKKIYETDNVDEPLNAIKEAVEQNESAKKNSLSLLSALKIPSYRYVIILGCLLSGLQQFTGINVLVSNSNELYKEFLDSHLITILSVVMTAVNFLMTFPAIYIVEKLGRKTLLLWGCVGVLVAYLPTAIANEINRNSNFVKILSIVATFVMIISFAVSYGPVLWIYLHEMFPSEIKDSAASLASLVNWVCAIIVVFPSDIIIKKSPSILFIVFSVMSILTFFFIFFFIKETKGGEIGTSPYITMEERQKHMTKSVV
Experimental: as §1, with “Uptake data are plotted as percent uptake relative to vehicle-treated cells. Kinetic analyses were performed using the indicated concentrations of substrate and WU-1, with quenching of uptake after 1 min incubation.” left out, “Data were fit by least squares nonlinear regression analysis using GraphPad Prism 6.0 software.” left out

PfHT [3] = biological target: T1, PfHT; test: [3H]-D-glucose specific uptake into liposomes containing purified PfHT; type: biochemical; design: expressed in transfected cells; host or cells: HEK293 (HEK293-FLIP, native hGLUT1 knocked down by shRNA); conditions: for D-Glc - L-Glc Uptake, Ave / D-Glc - L-Glc Uptake, individual experiments: PfHT liposomes

Cc1ccc(S(=O)(=O)CCNC(=O)c2c(-c3c(Cl)cccc3Cl)noc2C)cc1 [WU-1, 3-(2,6-dichlorophenyl)-5-methyl-N-[2-(4-methylbenzenesulfonyl)ethyl]-1,2-oxazole-4-carboxamide]
2-DG uptake by freed parasites (normalised to 100), AVE per experiment ([1]; 0.001 µM WU-1): 100.00
2-DG uptake by freed parasites (normalised to 100), AVE per experiment ([1]; 8.33 µM WU-1): 54.38 and 56.80 and 54.68
2-DG uptake by freed parasites (normalised to 100), AVE per experiment ([1]; 25 µM WU-1): 40.52 and 37.08 and 35.20
2-DG uptake by freed parasites (normalised to 100), AVE per experiment ([1]; 75 µM WU-1): 20.23 and 31.42 and 24.43
2-DG uptake by freed parasites (normalised to 100), AVE per experiment ([1]; 225 µM WU-1): 17.01 and 18.91 and 19.76
IC50 ([1]; Expt 1-3, read-out: IC50 for 2-DG uptake by freed parasites, individual experiments): 6.6 µM and 4.5 µM
IC50 ([1]; Plasmodium falciparum, 3D7, Expt 1-3, read-out: IC50 for 2-DG uptake by freed parasites, individual experiments): 7.2 µM
IC50 ([1]; Plasmodium falciparum, 3D7, isolated P. falciparum trophozoites, mean, read-out: IC50 for 2-DG uptake by freed parasites): 6.1 ± 0.8 µM
Ki (PfHT [2]; Ki (Dixon plot, horizontal intercepts), zero-trans D-fructose uptake, HEK293PfHT, mean): 4.4 ± 0.3 µM
Ki (PfHT [2]; Ki (µM) from individual Dixon lines, one value per D-fructose concentration line): 5.32 µM and 4.25 µM and 3.83 µM and 4.22 µM
mode of inhibition (PfHT [2]; zero-trans D-fructose uptake/hexose influx by PfHT): non-competitive inhibitor
IC50 (PfHT [3]; IC50 for specific D-glucose uptake (D-glucose minus L-glucose) into PfHT liposomes, purified PfHT, zero-trans, mean): 5.9 ± 0.8 µM
IC50 (PfHT [3]; IC50 for specific D-glucose uptake into PfHT liposomes, individual experiments, Expt 1-3): 7.34 µM and 4.58 µM and 5.92 µM
D-Glc - L-Glc Uptake, Ave (PfHT [3]; 0.001 µM WU-1): 21.51 pmol/µg PfHT
D-Glc - L-Glc Uptake, individual experiments (PfHT [3]; 0.001 µM WU-1): 20.93 pmol/µg PfHT and 22.42 pmol/µg PfHT and 21.19 pmol/µg PfHT
D-Glc - L-Glc Uptake, Ave (PfHT [3]; 0.625 µM WU-1): 22.79 pmol/µg PfHT
D-Glc - L-Glc Uptake, individual experiments (PfHT [3]; 0.625 µM WU-1): 21.85 pmol/µg PfHT and 22.43 pmol/µg PfHT and 24.08 pmol/µg PfHT
D-Glc - L-Glc Uptake, Ave (PfHT [3]; 1.25 µM WU-1): 19.33 pmol/µg PfHT
D-Glc - L-Glc Uptake, individual experiments (PfHT [3]; 1.25 µM WU-1): 16.67 pmol/µg PfHT and 24.18 pmol/µg PfHT and 17.15 pmol/µg PfHT
D-Glc - L-Glc Uptake, Ave (PfHT [3]; 2.5 µM WU-1): 18.48 pmol/µg PfHT
D-Glc - L-Glc Uptake, individual experiments (PfHT [3]; 2.5 µM WU-1): 16.28 pmol/µg PfHT and 15.54 pmol/µg PfHT and 23.61 pmol/µg PfHT
D-Glc - L-Glc Uptake, Ave (PfHT [3]; 5 µM WU-1): 10 pmol/µg PfHT
D-Glc - L-Glc Uptake, individual experiments (PfHT [3]; 5 µM WU-1): 13.49 pmol/µg PfHT and 7.15 pmol/µg PfHT and 9.35 pmol/µg PfHT
D-Glc - L-Glc Uptake, Ave (PfHT [3]; 10 µM WU-1): 7.99 pmol/µg PfHT
D-Glc - L-Glc Uptake, individual experiments (PfHT [3]; 10 µM WU-1): 7.38 pmol/µg PfHT and 9.19 pmol/µg PfHT and 7.39 pmol/µg PfHT
D-Glc - L-Glc Uptake, Ave (PfHT [3]; 20 µM WU-1): 5.15 pmol/µg PfHT
D-Glc - L-Glc Uptake, individual experiments (PfHT [3]; 20 µM WU-1): 6.58 pmol/µg PfHT and 4.82 pmol/µg PfHT and 4.04 pmol/µg PfHT
D-Glc - L-Glc Uptake, Ave (PfHT [3]; 40 µM WU-1): 2.74 pmol/µg PfHT
D-Glc - L-Glc Uptake, individual experiments (PfHT [3]; 40 µM WU-1): 3.05 pmol/µg PfHT and 1.92 pmol/µg PfHT and 3.24 pmol/µg PfHT
D-Glc - L-Glc Uptake, Ave (PfHT [3]; 80 µM WU-1): -0.29 pmol/µg PfHT
D-Glc - L-Glc Uptake, individual experiments (PfHT [3]; 80 µM WU-1): 0.605 pmol/µg PfHT and -1.53 pmol/µg PfHT and 0.06 pmol/µg PfHT
D-Glc - L-Glc Uptake, Ave (PfHT [3]; 160 µM WU-1): -0.167 pmol/µg PfHT
D-Glc - L-Glc Uptake, individual experiments (PfHT [3]; 160 µM WU-1): 0.75 pmol/µg PfHT and -0.06 pmol/µg PfHT and -1.19 pmol/µg PfHT
